Measured values from ChEMBL document CHEMBL1127981, “Novel ether derivatives of alkyl piperidines as potential sigma / 5HT2 antipsychotic agents” (Bioorg Med Chem Lett, 1994).
pKi: −log10 of the molar value.

Assays:
[1] = molecular target: Serotonin 2 (5-HT2) receptor (Homo sapiens, UniProt P41595+P28223+P28335); assay: Binding affinity towards 5-HT2 receptor using [3H]ketanserin as radioligand; type: protein assay
[2] = molecular target: Sigma non-opioid intracellular receptor 1 (Homo sapiens, UniProt Q99720); assay: Binding affinity towards sigma receptor using [3H](+)-SKF-10047 as radioligand
Sequence of Sigma non-opioid intracellular receptor 1 (Q99720 whole entry): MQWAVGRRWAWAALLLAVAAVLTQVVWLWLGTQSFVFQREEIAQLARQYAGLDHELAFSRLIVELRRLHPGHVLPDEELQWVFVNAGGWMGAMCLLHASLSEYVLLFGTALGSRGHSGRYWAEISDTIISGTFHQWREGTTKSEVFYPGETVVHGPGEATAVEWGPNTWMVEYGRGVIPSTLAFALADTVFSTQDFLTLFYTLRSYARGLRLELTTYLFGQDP

[3] = In vivo potency was determined in anti-mescaline scratch assay(peroral administration); type: functional, organism-based
D(2) dopamine receptor = D(2) dopamine receptor (Homo sapiens, UniProt P14416); assay: Binding affinity towards Dopamine receptor D2 using [3H]spiperone as radioligand
Sequence of D(2) dopamine receptor (P14416 whole entry): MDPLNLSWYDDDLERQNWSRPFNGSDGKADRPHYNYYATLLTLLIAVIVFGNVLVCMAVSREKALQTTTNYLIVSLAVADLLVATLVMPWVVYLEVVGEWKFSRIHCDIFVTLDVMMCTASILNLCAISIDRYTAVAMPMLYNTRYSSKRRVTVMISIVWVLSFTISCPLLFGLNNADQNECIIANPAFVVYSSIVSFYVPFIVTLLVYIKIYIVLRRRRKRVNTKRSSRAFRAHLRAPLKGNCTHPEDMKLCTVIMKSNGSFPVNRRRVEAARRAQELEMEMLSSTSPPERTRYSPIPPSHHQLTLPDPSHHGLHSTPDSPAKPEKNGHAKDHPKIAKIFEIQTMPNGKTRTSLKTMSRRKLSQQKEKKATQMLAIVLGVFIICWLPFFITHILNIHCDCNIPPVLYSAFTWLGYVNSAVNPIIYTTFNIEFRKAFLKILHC

Row | SMILES | Ki [1] [nM] | pKi [2] | ED50 [3] [mg/kg] | pKi (D(2) dopamine receptor)
1 | C(=C\c1ccccc1)/COCC1CCN(CCCc2ccccc2)CC1 | 283 | 7.74 | 9 | 6.02
2 | C(=C\c1ccccc1)/COCC1CCN(Cc2ccccc2)CC1 | 44 | 8.15 | 6 | < 5.00
3 | Fc1ccc(CCN2CCC(CCOCC#Cc3ccccc3)CC2)cc1 | 85 | 7.74 | 3.6 | 5.74
4 | C(COCC1CCN(Cc2ccccc2)CC1)=C(c1ccccc1)c1ccccc1 | 29 | 7.66 | > 30 | 6.21
5 | Fc1ccc(/C=C/COCC2CCN(Cc3ccccc3)CC2)cc1 | 31 | 7.92 | 8 | 5.66
6 | C(/C=C/c1ccccc1)=C\OCC1CCN(Cc2ccccc2)CC1 | 547 | 6.67 | – | < 5.00
7 | C(#Cc1ccccc1)COC1CCN(CCc2ccccc2)CC1 | 72 | 8.40 | > 10 | 5.87
8 | C(#Cc1ccccc1)COCCC1CCN(CCc2ccccc2)CC1 | 21 | 8.15 | 4.1 | 6.88
9 | C/C=C/CN1CCC(COC/C=C/c2ccccc2)CC1 | 650 | 8.10 | > 30 | < 5.00
10 | C(=C\c1ccccc1)/COCC1CCN(CCc2ccccc2)CC1 | 250 | 8.30 | > 5 | 6.62
11 | FC(F)(F)c1ccc(/C=C/COCC2CCN(Cc3ccccc3)CC2)cc1 | 324 | 7.55 | > 10 | 5.36
12 | C(#Cc1ccccc1)COCCC1CCN(CC2CC2)CC1 | 947 | 9.00 | > 10 | < 5.00
13 | C(=C/c1ccccc1)/COCC1CCN(Cc2ccccc2)CC1 | > 10000 | 7.05 | – | < 5.00
14 | Fc1ccc(C#CCOCCC2CCN(CCc3ccccc3)CC2)cc1 | 81 | 8.70 | > 10 | 5.97
15 | c1ccc(CCCOCC2CCN(Cc3ccccc3)CC2)cc1 | 180 | 7.57 | > 30 | 6.26
16 | C(#Cc1ccccc1)COCC1CCN(Cc2ccccc2)CC1 | 254 | 8.40 | > 30 | < 5.00
17 | C(=C\c1ccccc1)/COCC1CCN(Cc2cccc3ccccc23)CC1 | 284 | 8.10 | > 10 | < 5.00
18 | C(=C\c1ccccc1)/COCC1CCN(CC2CC2)CC1 | 1847 | 8.30 | > 30 | < 5.00
